Experimental data as given in PubChem BioAssay (NCI).
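Five concentrations, 48 hours, 96-well plates. At the TGI there is no net growth.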

Tests used:
Test in all cases: growth of human tumour cells (NCI), 48 h
HCC-2998 colon = test system: HCC-2998 colon
SK-MEL-5 melanoma = test system: SK-MEL-5 melanoma
SF-295 CNS = test system: SF-295 CNS
RPMI-8226 leukemia = test system: RPMI-8226 leukemia
U251 CNS = test system: U251 CNS
UO-31 renal = test system: UO-31 renal
EKVX NSCLC = test system: EKVX NSCLC
SNB-19 CNS = test system: SNB-19 CNS
SF-268 CNS = test system: SF-268 CNS
SNB-75 CNS = test system: SNB-75 CNS
NCI-H522 lung = test system: NCI-H522 lung
MCF7 breast = test system: MCF7 breast
SK-MEL-2 melanoma = test system: SK-MEL-2 melanoma
NCI-H23 lung = test system: NCI-H23 lung
IGROV1 ovarian = test system: IGROV1 ovarian
UACC-62 melanoma = test system: UACC-62 melanoma
NCI-H226 lung = test system: NCI-H226 lung
TK-10 renal = test system: TK-10 renal
MDA-N = test system: MDA-N
HT29 colon = test system: HT29 colon
COLO 205 colon = test system: COLO 205 colon
786-0 renal = test system: 786-0 renal
NCI-H460 lung = test system: NCI-H460 lung
M14 melanoma = test system: M14 melanoma
PC-3 prostate = test system: PC-3 prostate
OVCAR-4 ovarian = test system: OVCAR-4 ovarian
A498 renal = test system: A498 renal
ACHN renal = test system: ACHN renal
SK-OV-3 ovarian = test system: SK-OV-3 ovarian
MALME-3M melanoma = test system: MALME-3M melanoma
RXF 393 renal = test system: RXF 393 renal
HCT-15 colon = test system: HCT-15 colon
SN12C renal = test system: SN12C renal
SK-MEL-28 melanoma = test system: SK-MEL-28 melanoma
SW-620 colon = test system: SW-620 colon
K-562 leukemia = test system: K-562 leukemia
A549 NSCLC = test system: A549 NSCLC
CAKI-1 renal = test system: CAKI-1 renal
HCT-116 colon = test system: HCT-116 colon
DU-145 prostate = test system: DU-145 prostate
KM12 colon = test system: KM12 colon
MDA-MB-231 breast = test system: MDA-MB-231 breast
NCI/ADR-RES ovarian = test system: NCI/ADR-RES ovarian
MDA-MB-435 = test system: MDA-MB-435
OVCAR-5 ovarian = test system: OVCAR-5 ovarian
BT-549 breast = test system: BT-549 breast
UACC-257 melanoma = test system: UACC-257 melanoma
HOP-92 NSCLC = test system: HOP-92 NSCLC
MOLT-4 leukemia = test system: MOLT-4 leukemia
HOP-62 NSCLC = test system: HOP-62 NSCLC
HL-60(TB) leukemia = test system: HL-60(TB) leukemia
T-47D breast = test system: T-47D breast
OVCAR-8 ovarian = test system: OVCAR-8 ovarian
CCRF-CEM leukemia = test system: CCRF-CEM leukemia
SF-539 CNS = test system: SF-539 CNS
OVCAR-3 ovarian = test system: OVCAR-3 ovarian
LOX IMVI melanoma = test system: LOX IMVI melanoma

## O=C(COc1ccc(OCC(=O)N2C(=O)CN(c3ccc(Cl)cc3)C2=S)cc1)N1C(=O)CN(c2ccc(Cl)cc2)C1=S
HCC-2998 colon
  TGI: 51.4 µM
SK-MEL-5 melanoma
  TGI: 34.5 µM
SF-295 CNS
  TGI: > 100 µM
RPMI-8226 leukemia
  TGI: 75.9 µM
U251 CNS
  TGI: 83.6 µM
UO-31 renal
  TGI: > 100 µM
EKVX NSCLC
  TGI: > 100 µM
SNB-19 CNS
  TGI: > 100 µM
SF-268 CNS
  TGI: 97.6 µM
SNB-75 CNS
  TGI: > 100 µM
NCI-H522 lung
  TGI: 69.2 µM
MCF7 breast
  TGI: > 100 µM
SK-MEL-2 melanoma
  TGI: 36.6 µM
NCI-H23 lung
  TGI: > 100 µM
IGROV1 ovarian
  TGI: > 100 µM
UACC-62 melanoma
  TGI: 51.5 µM
NCI-H226 lung
  TGI: 90.1 µM
TK-10 renal
  TGI: 91.5 µM
MDA-N
  TGI: 92.5 µM
HT29 colon
  TGI: 92.2 µM
COLO 205 colon
  TGI: 64.1 µM
786-0 renal
  TGI: 58.6 µM
NCI-H460 lung
  TGI: 66.1 µM
M14 melanoma
  TGI: > 100 µM
PC-3 prostate
  TGI: > 100 µM
OVCAR-4 ovarian
  TGI: > 100 µM
A498 renal
  TGI: 66.8 µM
ACHN renal
  TGI: > 100 µM
SK-OV-3 ovarian
  TGI: 90.3 µM
MALME-3M melanoma
  TGI: > 100 µM
RXF 393 renal
  TGI: 67.5 µM
HCT-15 colon
  TGI: > 100 µM
SN12C renal
  TGI: 97.9 µM
SK-MEL-28 melanoma
  TGI: > 100 µM
SW-620 colon
  TGI: > 100 µM
K-562 leukemia
  TGI: > 100 µM
A549 NSCLC
  TGI: 78 µM
CAKI-1 renal
  TGI: 40.6 µM
HCT-116 colon
  TGI: 32.6 µM
DU-145 prostate
  TGI: > 100 µM
KM12 colon
  TGI: 43.4 µM
MDA-MB-231 breast
  TGI: 57 µM
NCI/ADR-RES ovarian
  TGI: > 100 µM
MDA-MB-435
  TGI: > 100 µM
OVCAR-5 ovarian
  TGI: > 100 µM
BT-549 breast
  TGI: > 100 µM
UACC-257 melanoma
  TGI: 93.2 µM
HOP-92 NSCLC
  TGI: 88 µM
MOLT-4 leukemia
  TGI: > 100 µM

## CCOP(=O)(/C=C/n1ccc(=O)[nH]c1=O)OCC
SK-MEL-5 melanoma
  TGI: > 100 µM
SF-295 CNS
  TGI: > 100 µM
RPMI-8226 leukemia
  TGI: > 100 µM
U251 CNS
  TGI: > 100 µM
EKVX NSCLC
  TGI: > 100 µM
HOP-62 NSCLC
  TGI: > 100 µM
HL-60(TB) leukemia
  TGI: > 100 µM
SNB-19 CNS
  TGI: > 100 µM
SF-268 CNS
  TGI: > 100 µM
SNB-75 CNS
  TGI: > 100 µM
T-47D breast
  TGI: > 100 µM
NCI-H522 lung
  TGI: > 100 µM
MCF7 breast
  TGI: > 100 µM
SK-MEL-2 melanoma
  TGI: > 100 µM
NCI-H23 lung
  TGI: > 100 µM
OVCAR-8 ovarian
  TGI: > 100 µM
IGROV1 ovarian
  TGI: > 100 µM
UACC-62 melanoma
  TGI: > 100 µM
CCRF-CEM leukemia
  TGI: > 100 µM
NCI-H226 lung
  TGI: > 100 µM
TK-10 renal
  TGI: > 100 µM
MDA-N
  TGI: > 100 µM
HT29 colon
  TGI: > 100 µM
COLO 205 colon
  TGI: > 100 µM
786-0 renal
  TGI: > 100 µM
NCI-H460 lung
  TGI: > 100 µM
M14 melanoma
  TGI: > 100 µM
PC-3 prostate
  TGI: > 100 µM
OVCAR-4 ovarian
  TGI: > 100 µM
SF-539 CNS
  TGI: > 100 µM
A498 renal
  TGI: > 100 µM
ACHN renal
  TGI: > 100 µM
SK-OV-3 ovarian
  TGI: > 100 µM
RXF 393 renal
  TGI: > 100 µM
HCT-15 colon
  TGI: > 100 µM
SN12C renal
  TGI: > 100 µM
SK-MEL-28 melanoma
  TGI: > 100 µM
SW-620 colon
  TGI: > 100 µM
K-562 leukemia
  TGI: > 100 µM
OVCAR-3 ovarian
  TGI: > 100 µM
A549 NSCLC
  TGI: > 100 µM
CAKI-1 renal
  TGI: > 100 µM
HCT-116 colon
  TGI: > 100 µM
LOX IMVI melanoma
  TGI: > 100 µM
DU-145 prostate
  TGI: > 100 µM
KM12 colon
  TGI: > 100 µM
MDA-MB-231 breast
  TGI: > 100 µM
NCI/ADR-RES ovarian
  TGI: > 100 µM
MDA-MB-435
  TGI: > 100 µM
OVCAR-5 ovarian
  TGI: > 100 µM
BT-549 breast
  TGI: > 100 µM
UACC-257 melanoma
  TGI: > 100 µM
MOLT-4 leukemia
  TGI: > 100 µM
